Key:
Type in all cases: physicochemical
[1] = Dehydration reaction (lactam formation) when maintained in a dried state at 105° C.; settings: 105° C. over 2-3 hours
Experimental: To the contrary, in γ-aminobutyric acid derivatives having no or a less bulky substituent at the 3-position thereof, such as γ-aminobutyric acid or 4-amino-3-hydroxy-butanoic acid, the dehydration reaction is not brought about even when maintained in a dried state such as at a temperature of 105° C. over 2-3 hours, and the formation of 4-cyclohexylpyrrolidone (the corresponding lactam form) is not observed. In other words, in the 4-amino-3-substituted-butanoic acid derivative wherein the substituent at the 3-position thereof has a bulky structure, the dehydration reaction could easily be brought about between the amino group and the carboxyl group within the molecule.

[2] = Storage stability of pregabalin samples: dehydrated condensate content by HPLC; settings: Table 9, based on pregabalin
Experimental: The samples I, J and K obtained as described above and untreated pregabalin crystals were stored under the conditions as defined in the following Table 9 and then a content of the dehydrated condensate formed in each of the samples was determined by means of HPLC. In the present Example and the following Example 6, a content of the dehydrated condensate is expressed in terms of % by weight, based on pregabalin.
The samples L and M obtained as described above were stored under the conditions as defined in the following Table 10 and then a content of the dehydrated condensate formed in each of the samples was determined by means of HPLC.

[3] = Storage stability of baclofen samples: dehydrated condensates content by HPLC; settings: based on baclofen
Experimental: The baclofen powder samples G and H obtained as described above and untreated baclofen crystals were stored under the conditions as defined in the following Table 8 and then a content of dehydrated condensates formed in each of the samples was determined by means of HPLC. In this Example, the content of the dehydrated condensates is expressed in terms of % by weight, based on baclofen.

Question: Which “formation of 4-cyclohexylpyrrolidone (the corresponding lactam form)” value [1] does the source give for `NCC(O)CC(=O)O` (stereo not drawn) [4-amino-3-hydroxy-butanoic acid] here?
Answer: The value was “not observed”.

Question: Which results are given for `CC(C)CC(CN)CC(=O)O` (stereo not drawn) [Untreated Pregabalin, 5-methyl-3-aminomethyl-hexanoic acid]?
Answer: content of the dehydrated condensate ([2]; 60° C./1 week (sealed)): 0.001 % by weight; content of the dehydrated condensate ([2]; 60° C./2 weeks (sealed)): 0.001 % by weight; content of the dehydrated condensate ([2]; When initiated): <0.001 % by weight

Question: With `NCCCC(=O)O` [γ-aminobutyric acid] as the compound, how does the “formation of 4-cyclohexylpyrrolidone (the corresponding lactam form)” value [1] read?
Answer: The value was “not observed”.

Question: Which “content of dehydrated condensates” value ([3]; 60° C./1 week (sealed)) does the source give for `NCC(CC(=O)O)c1ccc(Cl)cc1` (stereo not drawn) [Untreated Baclofen] here?
Answer: Its value is 0.36 % by weight.

Question: What about the “content of dehydrated condensates” value ([3]; 60° C./2 weeks (sealed)) of the same compound?
Answer: Its value is 0.57 % by weight.

Question: And the “content of dehydrated condensates” value ([3]; 60° C./3 weeks (sealed))?
Answer: Its value is 0.70 % by weight.

Question: What about the “content of dehydrated condensates” value ([3]; When Initiated) of the same compound?
Answer: Its value is 0.10 % by weight.
